PMC8199755, “In Vitro and In Vivo Trypanocidal Efficacy of Synthesized Nitrofurantoin Analogs” (Molecules, 2021)
Read-outs that look alike come from different tables or passages of the source.

Columns and labels:
T. b. brucei GUTat3.1 = experiment: In vitro trypanocidal activity (CellTiter-Glo, 3 days); format: cell-based; conditions: Trypanosoma brucei, 72 h, bloodstream forms, 37 °C, mean ± SD of triplicate, read-out: Trypanocidal Activity IC50 ± SD, Tbb GUTat3.1
Protocol: (§1) The bloodstream forms of T. b. brucei GUTat3.1, T. b. rhodesiense IL1501, T. b. rhodesiense Chirundu, T. b. gambiense IL1922, and T. evansi Tansui strains were propagated in culture at 37 °C, whereas the T. congolense IL3000 strain was propagated at 33 °C in Hirumi’s modified Iscove’s medium-9, supplemented with 20% heat-inactivated fetal bovine serum. The bloodstream form cultures were maintained by replacing the entire culture supernatant with fresh medium, every other day.
(§2) The trypanocidal activity and cytotoxicity of nitrofurantoin analogs were evaluated according to previous reports, with some modifications. In brief, bloodstream forms adjusted at 2.5 × 10^3 cells/mL (T. b. brucei GUTat3.1, T. b. gambiense IL1922, and T. b. rhodesiense IL1501), 1 × 10^4 cells/mL (T. evansi Tansui and T. b. rhodesiense Chirundu), and 1 × 10^5 cells/mL (T. congolense IL3000), were cultivated in Nunc® MicroWell 96-well optical bottom plates (Thermo Fisher Scientific, Waltham, MA, USA) and exposed to various analogs at seven different concentrations for 3 days, in an incubator at 37 °C (33 °C for T. congolense IL3000). […] Twenty-five microliters of the Cell-TiterGlo® (Promega, Madison, WI, USA) reagent was added into each well, and bioluminescence was measured using a GloMax®-Multi+Detection System plate reader (Promega).
(§3) The half maximum inhibitory concentration (IC50) of each analog in trypanosomes and the Madin–Darby bovine kidney cells was calculated using the GraphPad Prism version 8 software (GraphPad, Inc., San Diego, CA, USA).

T. congolense IL3000 = experiment: as above; format: cell-based; conditions: bloodstream forms, 33 °C, mean ± SD of triplicate, read-out: Trypanocidal Activity IC50 ± SD, Tc IL3000
Protocol: as §1, §2, §3

T. b. gambiense IL1922 = experiment: as above; format: cell-based; conditions: Trypanosoma brucei, 72 h, bloodstream forms, 37 °C, mean ± SD of triplicate, read-out: Trypanocidal Activity IC50 ± SD, Tbg IL1922
Protocol: as §1, §2, §3

T. b. rhodesiense IL1501 = experiment: as above; format: cell-based; conditions: Trypanosoma brucei, 72 h, bloodstream forms, 37 °C, mean ± SD of triplicate, read-out: Trypanocidal Activity IC50 ± SD, Tbr IL1501
Protocol: as §1, §2, §3

T. evansi Tansui = experiment: as above; format: cell-based; conditions: 72 h, bloodstream forms, 37 °C, mean ± SD of triplicate, read-out: Trypanocidal Activity IC50 ± SD, Tev Tansui
Protocol: as §1, §2, §3

[1] = Cytotoxicity (Cell Counting Kit-8, 3 days); format: cell-based, bovine; conditions: bovine, 37 °C, mean ± SD of triplicate
Protocol: Additionally, Madin–Darby bovine kidney cells were cultivated (density, 1 × 10^4 cells/mL) in a 96-well cell culture plate (Thermo Fisher Scientific) with the analogs, at seven different concentrations for 3 days at 37 °C. Next, 10 µl of the Cell Counting Kit-8 solution (Dojindo, Kumamoto, Japan) was added into each well […] 4 h of incubation. Absorbance was measured at 450 nm using a GloMax®-Multi+Detection System plate reader.
as §3

[2] = tested on: T. b. rhodesiense Chirundu; experiment: In vitro trypanocidal activity (CellTiter-Glo, 3 days); format: cell-based; conditions: Trypanosoma brucei, 72 h, bloodstream forms, 37 °C, mean ± SD of triplicate, read-out: Trypanocidal Activity IC50 ± SD, Tbr Chirundu
Protocol: as §1, §2, §3

[3] = Madin–Darby bovine kidney (MDBK) cells

| Structure (SMILES) | IC50 (T. b. brucei GUTat3.1) | IC50 (T. congolense IL3000; Trypanosoma congolense, 72 h) | IC50 (T. congolense IL3000) | IC50 (T. b. gambiense IL1922) | IC50 (T. b. rhodesiense IL1501) | IC50 (T. evansi Tansui) | IC50 at 3 days [1, 3] | IC50 [2] | IC50 at 3 days ([1]; MDBK cells) |
| --- | --- | --- | --- | --- | --- | --- | --- | --- | --- |
| CN1C(=O)CN(/N=C/c2ccc([N+](=O)[O-])o2)C1=O [Analog 1, (E)-3-Methyl-1-([(5-nitrofuran-2-yl)methylene]amino)imidazolidine-2,4-dione] | 3610 ± 400 nM | 190 to 730 nM | 190 ± 76 nM | 3600 ± 260 nM | 7020 ± 94 nM | 1610 ± 98 nM | 65200 ± 12800 nM |  |  |
| CCN1C(=O)CN(/N=C/c2ccc([N+](=O)[O-])o2)C1=O [Analog 2, (E)-3-Ethyl-1-([(5-nitrofuran-2-yl)methylene]amino)imidazolidine-2,4-dione] | 10800 ± 4840 nM |  |  | 11300 ± 4800 nM | 11400 ± 5240 nM | 5390 ± 530 nM | 44800 ± 1690 nM |  |  |
| CCCN1C(=O)CN(/N=C/c2ccc([N+](=O)[O-])o2)C1=O [Analog 3, (E)-1-([(5-Nitrofuran-2-yl)methylene]amino)-3-propylimidazolidine-2,4-dione] | 14100 ± 340 nM | 330 ± 180 nM |  | 14700 ± 1320 nM | 14000 ± 1420 nM | 6530 ± 610 nM | 39300 ± 1090 nM | 810 ± 240 nM |  |
| CCCCN1C(=O)CN(/N=C/c2ccc([N+](=O)[O-])o2)C1=O [Analog 4, (E)-3-Butyl-1-([(5-nitrofuran-2-yl)methylene]amino)imidazolidine-2,4-dione] | 33300 ± 24300 nM | 310 ± 200 nM |  | 17200 ± 2230 nM | 32700 ± 820 nM | 7890 ± 530 nM | 35800 ± 3490 nM | 1380 ± 340 nM |  |
| CCCCCN1C(=O)CN(/N=C/c2ccc([N+](=O)[O-])o2)C1=O [Analog 5, (E)-1-([(5-Nitrofuran-2-yl)methylene]amino)-3-pentylimidazolidine-2,4-dione] | 4240 ± 1990 nM | 350 ± 150 nM |  | 3420 ± 1470 nM | 5690 ± 1660 nM | 5440 ± 170 nM | 39100 ± 5860 nM |  |  |
| CCCCCCN1C(=O)CN(/N=C/c2ccc([N+](=O)[O-])o2)C1=O [Analog 6, (E)-3-Hexyl-1-([(5-nitrofuran-2-yl)methylene]amino)imidazolidine-2,4-dione] | 5760 ± 4010 nM | 80 ± 47 nM |  | 2590 ± 280 nM | 2610 ± 120 nM | 3760 ± 470 nM | 25200 ± 3520 nM | 170 ± 110 nM |  |
| CCCCCCCN1C(=O)CN(/N=C/c2ccc([N+](=O)[O-])o2)C1=O [Analog 7, (E)-3-Heptyl-1-([(5-nitrofuran-2-yl)methylene]amino)imidazolidine-2,4-dione] | 2060 ± 750 nM | 40 ± 11 nM |  | 1990 ± 750 nM | 1450 ± 860 nM | 1020 ± 100 nM | 92300 ± 6520 nM | 56 ± 26 nM |  |
| CCCCCCCCCCN1C(=O)CN(/N=C/c2ccc([N+](=O)[O-])o2)C1=O [Analog 10, (E)-3-Decyl-1-([(5-nitrofuran-2-yl)methylene]amino)imidazolidine-2,4-dione] | 650 ± 560 nM | 11 ± 4.4 nM |  | 620 ± 700 nM | 610 ± 60 nM | 280 ± 25 nM | 110000 ± 14400 nM | 17 ± 4.4 nM |  |
| O=C1CN(/N=C/c2ccc([N+](=O)[O-])o2)C(=O)N1CCCc1ccccc1 [Analog 13, (E)-1-([(5-Nitrofuran-2-yl)methylene]amino)-3-(3-phenylpropyl)imidazolidine-2,4-dione] | 7290 ± 3160 nM | 140 ± 30 nM |  | 4830 ± 3220 nM | 5900 ± 3750 nM | 3110 ± 370 nM | > 281000 nM | 140 ± 67 nM |  |
| O=C1CN(/N=C/c2ccc([N+](=O)[O-])o2)C(=O)N1Cc1ccccc1 [Analog 14, (E)-3-Benzyl-1-([(5-nitrofuran-2-yl)methylene]amino)imidazolidine-2,4-dione] | 2880 ± 260 nM | 180 ± 17 nM |  | 2340 ± 640 nM | 2830 ± 610 nM | 1260 ± 100 nM | > 305000 nM | 270 ± 120 nM |  |
| Cc1ccc(CN2C(=O)CN(/N=C/c3ccc([N+](=O)[O-])o3)C2=O)cc1 [Analog 15, (E)-3-(p-Methylbenzyl)-1-([(5-nitrofuran-2-yl)methylene]amino)imidazolidine-2,4-dione] | 8240 ± 3110 nM | 130 ± 44 nM |  | 2890 ± 510 nM | 6100 ± 47 nM | 4230 ± 400 nM | 34300 ± 11500 nM | 150 ± 68 nM |  |
| O=C1CN(/N=C/c2ccc([N+](=O)[O-])o2)C(=O)N1Cc1ccc(C(F)(F)F)cc1 [Analog 16, (E)-1-([(5-Nitrofuran-2-yl)methylene]amino)-3-(p-(trifluoromethyl)benzyl) imidazolidine-2,4-dione] | 520 ± 81 nM | 20 nM |  | 610 ± 260 nM | 960 ± 8.7 nM | 440 ± 46 nM | 56600 ± 40800 nM | 20 ± 12 nM |  |
| O=C1CN(/N=C/c2ccc([N+](=O)[O-])o2)C(=O)N1Cc1ccc([N+](=O)[O-])cc1 [Analog 17, (E)-3-(p-Nitrobenzyl)-1-([(5-nitrofuran-2-yl)methylene]amino)imidazolidine-2,4-dione] | 1070 ± 740 nM | 40 ± 17 nM |  | 1050 ± 700 nM | 500 ± 12 nM | 610 ± 50 nM |  | 40 ± 94 nM | 20100 ± 1020 nM |
| COc1ccc(CN2C(=O)CN(/N=C/c3ccc([N+](=O)[O-])o3)C2=O)cc1 [Analog 18, (E)-3-(p-Methoxybenzyl)-1-([(5-nitrofuran-2-yl)methylene]amino)imidazolidine-2,4-dione] | 9910 ± 92 nM | 140 ± 30 nM |  | 9780 ± 310 nM | 10100 ± 620 nM | 2400 ± 190 nM | 80100 ± 36900 nM | 330 ± 220 nM |  |
| O=C1CN(/N=C/c2ccc([N+](=O)[O-])o2)C(=O)N1Cc1ccc(Br)cc1 [Analog 19, (E)-3-(p-Bromobenzyl)-1-([(5-nitrofuran-2-yl)methylene]amino)imidazolidine-2,4-dione] | 2130 ± 230 nM | 49 ± 33 nM |  | 2040 ± 91 nM | 2470 ± 690 nM | 1150 ± 110 nM | 28700 ± 5690 nM | 41 ± 25 nM |  |
| NCCCC(N)(C(=O)O)C(F)F (stereo not drawn) [Eflornithine, reference compound] | 38600 ± 9880 nM | 16100 ± 2930 nM |  | 36700 ± 12900 nM | 46000 ± 17100 nM | 57200 ± 17600 nM |  | 35600 ± 10200 nM |  |
| CC1CS(=O)(=O)CCN1/N=C/c1ccc([N+](=O)[O-])o1 (stereo not drawn) [Nifurtimox, reference compound] | 4660 nM | 1060 ± 220 nM |  | 4580 ± 2380 nM | 4350 ± 1590 nM | 2620 ± 1400 nM |  | 1460 ± 350 nM |  |
| N=C(N)c1ccc(OCCCCCOc2ccc(C(=N)N)cc2)cc1 [Pentamidine, reference compound] | 41 ± 2.3 nM | 330 ± 54 nM |  | 14 ± 3.1 nM | 29 ± 6.2 nM | 0.97 ± 0.19 nM |  | 50 ± 12 nM |  |
| Cc1ccc(C(=O)Nc2ccc(S(=O)(=O)O)c3cc(S(=O)(=O)O)cc(S(=O)(=O)O)c23)cc1NC(=O)c1cccc(NC(=O)Nc2cccc(C(=O)Nc3cc(C(=O)Nc4ccc(S(=O)(=O)O)c5cc(S(=O)(=O)O)cc(S(=O)(=O)O)c45)ccc3C)c2)c1 [Suramin, reference compound] | 66 ± 5.2 nM | 7170 ± 870 nM |  | 64 ± 1.8 nM | 76 ± 11 nM | 380 ± 58 nM |  | 66 ± 71 nM |  |
